How the values were obtained:
SGLT2 = SGLT2 (Homo sapiens (Human), UniProt P31639); assay: Activity assay of SGLT2: [14C] methyl α-D-glucopyranoside uptake in SGLT2 transiently transferred HEK293 cells; type: cell-based; conditions: 2 hours at 37° C.
Procedure: (§1) Activity Assay of SGLT1 and SGLT2:
(§2) The following method was used to determine the inhibitory activity of the compounds of the present invention on SGLT1 and SGLT2. The experimental method is summarized as follows:
(§3) SGLT1 and SGLT2 transiently transferred HEK293 cells (prepared according to the existing literature “Diabetes, 57, 1723-1729, 2008”, wherein cDNA of SGLT1 and SGLT2 was purchased from Origene company) were seeded in a 96-well plate. The density of the cells was 1-1.5×10^4. The cells were cultured at 37° C. and 5% CO2 for 48 hours, and then washed twice with 200 μL sodium-free buffer. 90 μL sodium-containing buffer of the test compound at different concentrations was added to the well. Each test compound was repeated in three wells for each concentration. The cells were cultured at 37° C. for 15 minutes, then 10 μL (in number 0.1 μCi [^14C]) Methyl α-D-glucopyranoside was added to each well of the 96-well plate. The cells were further cultured at 37° C. for 2 hours, then the supernatant was discarded. The cells were washed twice with pre-chilled sodium-free buffer and then dissolved in 100 μL NaOH (200 mM). 100 μL scintillation solution was added, and mixed well. Scintiloscope was used for the quantitative detection of ^14C.
(§4) IC50 values of the compounds of various examples were calculated from the […] at different concentrations.

SGLT1 = SGLT1 (Homo sapiens (Human), UniProt P13866); assay: Activity assay of SGLT1: [14C] methyl α-D-glucopyranoside uptake in SGLT1 transiently transferred HEK293 cells; type: cell-based; conditions: for IC50: SGLT1 transiently transferred HEK293 cells, [14C] methyl α-D-glucopyranoside, 2 hours at 37° C.; for inhibition of SGLT1 (conclusion in words): conclusion from the IC50 table
Chain of SGLT1 (P13866 whole entry, species assumed): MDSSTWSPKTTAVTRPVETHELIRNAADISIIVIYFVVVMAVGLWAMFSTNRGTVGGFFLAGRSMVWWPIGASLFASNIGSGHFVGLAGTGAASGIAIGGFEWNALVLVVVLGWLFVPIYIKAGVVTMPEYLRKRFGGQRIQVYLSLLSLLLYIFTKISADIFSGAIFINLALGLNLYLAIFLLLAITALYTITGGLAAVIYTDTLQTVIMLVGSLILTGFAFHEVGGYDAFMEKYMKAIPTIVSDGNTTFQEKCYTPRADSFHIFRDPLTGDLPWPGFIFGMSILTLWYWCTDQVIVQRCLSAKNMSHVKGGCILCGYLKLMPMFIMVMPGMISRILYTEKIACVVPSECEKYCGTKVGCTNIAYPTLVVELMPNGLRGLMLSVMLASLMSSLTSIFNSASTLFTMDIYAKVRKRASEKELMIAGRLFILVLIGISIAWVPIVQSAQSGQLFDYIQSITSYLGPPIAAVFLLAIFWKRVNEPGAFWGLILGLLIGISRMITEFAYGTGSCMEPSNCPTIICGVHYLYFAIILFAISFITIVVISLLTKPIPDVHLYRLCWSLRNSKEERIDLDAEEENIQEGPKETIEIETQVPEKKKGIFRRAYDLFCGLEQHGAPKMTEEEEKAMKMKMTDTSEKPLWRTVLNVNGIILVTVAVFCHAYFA
Procedure: as §1, §2, §3, §4

Chain of SGLT2 (P31639 whole entry, species assumed): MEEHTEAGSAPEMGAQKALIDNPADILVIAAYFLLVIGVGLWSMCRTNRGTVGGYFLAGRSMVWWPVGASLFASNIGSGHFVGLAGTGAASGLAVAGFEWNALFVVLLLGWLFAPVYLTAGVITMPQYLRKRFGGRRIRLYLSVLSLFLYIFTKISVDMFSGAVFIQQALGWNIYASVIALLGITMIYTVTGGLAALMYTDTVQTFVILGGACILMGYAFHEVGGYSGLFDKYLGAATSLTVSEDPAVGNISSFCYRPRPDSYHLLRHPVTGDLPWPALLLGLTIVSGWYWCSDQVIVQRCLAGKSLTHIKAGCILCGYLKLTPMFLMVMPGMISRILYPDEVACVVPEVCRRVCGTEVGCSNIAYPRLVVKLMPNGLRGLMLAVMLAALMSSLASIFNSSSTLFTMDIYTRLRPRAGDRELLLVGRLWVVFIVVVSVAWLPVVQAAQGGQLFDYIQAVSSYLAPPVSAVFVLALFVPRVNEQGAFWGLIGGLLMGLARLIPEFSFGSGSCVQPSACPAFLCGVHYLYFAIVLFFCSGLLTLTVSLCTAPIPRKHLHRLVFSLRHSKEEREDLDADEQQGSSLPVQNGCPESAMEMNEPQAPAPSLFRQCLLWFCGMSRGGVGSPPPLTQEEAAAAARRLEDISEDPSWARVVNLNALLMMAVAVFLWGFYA

SMILES	IC50 (SGLT2)	IC50 (SGLT1)	inhibition of SGLT1 (conclusion in words) (SGLT1)
OC[C@H]1S[C@@H](c2cc3c(c(Cc4ccc5c(c4)OCCO5)c2)OCC3)[C@H](O)[C@@H](O)[C@@H]1O [Example 3, (2S,3R,4R,5S,6R)-2-(7-((2,3-dihydrobenzo[b][1,4]dioxin-6-yl)methyl)-2,3-dihydrobenzofuran-5-yl)-6-(hydroxymethyl)tetrahydro-2H-thiopyran-3,4,5-triol]	19.8 nM	2560 nM	–
Cc1ccc([C@@H]2S[C@H](CO)[C@@H](O)[C@H](O)[C@H]2O)cc1Cc1ccc2c(c1)OCCO2 [Example 4, (2S,3R,4R,5S,6R)-2-(3-((2,3-dihydrobenzo[b][1,4]dioxin-6-yl)methyl)-4-methylphenyl)-6-(hydroxymethyl)tetrahydro-2H-thiopyran-3,4,5-triol]	132 nM	89 nM	inhibited SGLT1
Cc1ccc([C@]23OC[C@](CO)(O2)[C@@H](O)[C@H](O)[C@H]3O)cc1Cc1ccc2c(c1)OCCO2 [Example 8, (1S,2S,3S,4R,5S)-5-(3-((2,3-dihydrobenzo[b][1,4]dioxin-6-yl)methyl)-4-methylphenyl)-1-(hydroxymethyl)-6,8-dioxabicyclo[3.2.1]octane-2,3,4-triol]	583 nM	1.21 nM	–

Now those with a lower IC50 (SGLT2), led by results:

IC50 (SGLT2)	IC50 (SGLT1)	inhibition of SGLT1 (conclusion in words) (SGLT1)	SMILES
0.58 nM	953 nM	–	OC[C@@]12CO[C@@](c3ccc(Cl)c(Cc4ccc5c(c4)OCCO5)c3)(O1)[C@H](O)[C@@H](O)[C@@H]2O [Example 1, (1S,2S,3S,4R,5S)-5-(4-chloro-3-((2,3-dihydrobenzo[b][1,4]dioxin-6-yl)methyl)phenyl)-1-(hydroxymethyl)-6,8-dioxabicyclo[3.2.1]octane-2,3,4-triol]
3.67 nM	15.7 nM	inhibited SGLT1	OC[C@@]12CO[C@@](c3ccc(C4CC4)c(Cc4ccc5c(c4)OCCO5)c3)(O1)[C@H](O)[C@@H](O)[C@@H]2O [Example 2, (1S,2S,3S,4R,5S)-5-(4-cyclopropyl-3-((2,3-dihydrobenzo[b][1,4]dioxin-6-yl)methyl)phenyl)-1-(hydroxymethyl)-6,8-dioxabicyclo[3.2.1]octane-2,3,4-triol]
1.82 nM	17.2 nM	inhibited SGLT1	CCCc1ccc([C@]23OC[C@](CO)(O2)[C@@H](O)[C@H](O)[C@H]3O)cc1Cc1ccc2c(c1)OCCO2 [Example 7, (1S,2S,3S,4R,5S)-5-(3-((2,3-dihydrobenzo[b][1,4]dioxin-6-yl)methyl)-4-propylphenyl)-1-(hydroxymethyl)-6,8-dioxabicyclo[3.2.1]octane-2,3,4-triol]
1.49 nM	16.6 nM	inhibited SGLT1	CCc1ccc([C@]23OC[C@](CO)(O2)[C@@H](O)[C@H](O)[C@H]3O)cc1Cc1ccc2c(c1)OCCO2 [Example 9, (1S,2S,3S,4R,5S)-5-(3-((2,3-dihydrobenzo[b][1,4]dioxin-6-yl)methyl)-4-ethylphenyl)-1-(hydroxymethyl)-6,8-dioxabicyclo[3.2.1]octane-2,3,4-triol]

Source: patent US10011627B2, “C-aryl glucoside derivative, preparation methods thereof, and medical applications thereof” (YOUNGENE THERAPEUTICS CO., LTD, priority 2013, dated 2018)
